Results as given in PMC10259201, “Mercapto-pyrimidines are reversible covalent inhibitors of the papain-like protease (PLpro) and inhibit SARS-CoV-2 (SCoV-2) replication” (RSC Advances, 2023).
Several values for one entry are separate records, joined by “and”; a condition that tells them apart may be missing. Identical values can stand only once. Entries after “also recorded” stand apart in the source; their conditions may differ. Like-named read-outs stand apart in the source and are kept apart here.

Experiments:
PLpro from SCoV-2 [1] = molecular target: PLpro from SCoV-2 (Severe acute respiratory syndrome coronavirus 2, UniProt P0DTD1); experiment: Fluorescent PLpro inhibition assay (RLRGG-AMC substrate), dose response; assay type: biochemical, SARS-CoV-2
SARS-CoV-2 USA-WA1/2020 = experiment: SCoV-2 USA-WA1/2020 antiviral assay with plaque forming readout in Vero E6 cells; assay type: cell-based
PLpro [2] = molecular target: T1, PLpro (Severe acute respiratory syndrome coronavirus 2, UniProt P0DTD1); experiment: Surface plasmon resonance with immobilized His-tagged PLpro; assay type: binding, SARS-CoV-2
PLpro [3] = molecular target: T1, PLpro; experiment: Time dependent PLpro inhibition assay (pre-incubation); assay type: biochemical, SARS-CoV-2
Text: Compound 5 contains a mercaptopyrimidine fragment, which can potentially undergo addition–elimination reactions with nucleophiles. For example, Murugesan et al. recently identified a mercaptopyrimidine based inhibitor of tuberculosis cell growth, which reacted with glutathione under physiological conditions.[27,35] PLpro is a cysteine protease with a nucleophilic cysteine in its active site, which could potentially react with compound 5via an additional elimination reaction. We performed a time dependent PLpro inhibition assay with compound 5 to determine if pre-incubation time lowered its IC50. Pre-incubation time lowers the IC50 of covalent inhibitors because it gives more time for the protein to react with the inhibitor. In contrast, pre-incubation time frequently has no effect on the IC50 of non-covalent inhibitors because their koffs are generally on the timescale of second to minutes.
The PLpro protein (50 nM) was preincubated with different concentration of inhibitor (0, 1, 2.5, 5, 10 and 20 μM) for different time points (0, 5, 10, 20, 35, 95, 125, 185 minutes). The substrate (50 μM) was added and measured the fluorescence. The data was analyzed using Enzyme – inhibition, GraphPad Prism.

SARS-CoV-2-NLuc = assay type: cell-based; details: data not shown
[4] = Cytotoxicity assay (resazurin); assay type: cell-based; details: African green monkey, Vero CCL-81 cells, Vero CCL-81, resazurin, read-out: cell viability
Vero CCL-81 cells = experiment: Cytotoxicity assay (resazurin); assay type: cell-based; details: 50 μM, Vero CCL-81, resazurin
SCoV2 PLpro = SCoV2 PLpro (Severe acute respiratory syndrome coronavirus 2, UniProt P0DTD1); experiment: Gel-based activity based protein profiling (IA-rhodamine / NHS-rhodamine); assay type: biochemical, SARS-CoV-2; details: pulse chase
Procedure: We performed activity-based profiling experiments to determine if compound 5 covalently reacted with the cysteines or lysines of PLpro.[36] Iodoacetamide-rhodamine was used as the probe for cysteine reactivity analysis and NHS-rhodamine was the probe for investigating lysine reactivity on PLpro. A traditional pulse chase experiment was performed with PLpro and the rhodamine dyes, where PLpro was first incubated with compound 5 and then incubated with iodoacetamide-rhodamine or NHS-rhodamine. After the dye incubation, PLpro was run on a protein gel and imaged via fluorescence. […] The other thiols in PLpro are either disulfides, which are unreactive to nucleophiles, or zinc chelated and have diminished nucleophilicity.
For gel-based ABPP experiments with PLpro, pure SCoV2 PLpro protein (0.1 μg per sample for IA-rhodamine and 0.05 μg for NHS-rhodamine) was pretreated with either DMSO vehicle or desired dosage of compound 5 at 37 °C for 1 hour in 25 μL PBS. […] Probe-labeled proteins were analyzed by in-gel rhodamine fluorescence using a ChemiDoc MP (Bio-Rad). Protein loading was assessed by Silver Staining.

PLpro [5] = molecular target: T1, PLpro; experiment: Jump dilution assay (reversibility of PLpro inhibition); assay type: biochemical, SARS-CoV-2
Procedure: To investigate if compound 5 constitutes a novel class of RCI, we performed a jump dilution assay with PLpro, compound 5 and beta-mercaptoethanol (BMe). PLpro and compound 5 were mixed and allowed to react, diluted 25-fold in the presence of 5 mM BMe[38,39] and the inhibition of PLpro was measured.
BMe is not a biological nucleophile, and we re-did the jump dilution assay in the presence of either 5 mM reduced glutathione (GSH) or 200 μM cysteine (their physiological concentrations)[40] to determine if the PLpro-compound 5 adduct would rapidly decompose in cells. […] In contrast, smaller thiols such as BMe and cysteine can apparently access the PLpro active site and can displace compound 5. […] In addition, the mercaptopryimidine ring can function as a size selective filter for thiols and this unique feature should allow it to find numerous applications in drug discovery.
PLpro was mixed with compound 5 at the 10-fold higher concentration of IC50 (10 × IC50) and allowed to form protein-inhibitor complex at saturating conditions at room temperature. The complex was then rapidly diluted in a buffer supplemented with 5 mM reduced glutathione, 5 mM beta-mercaptoethanol (BMe), 200 μM cysteine to bring the compound's concentration of 1/10 × IC50. After 5 minutes of dilution, the substrate was added and incubated for 30 minutes. The fluorescent intensities were read at the excitation wavelength of 360 nm and emission wavelength of 460 nm.

SCoV PLpro = system: SCoV PLpro; design: method as in PMID 18852458; details: cited from earlier work
PLpro from SCoV-2 [6] = system: PLpro from SCoV-2; design: method as in PMID 33531496, PMID 32895623, PMID 33473130, PMID 34341772, PMID 32845033; details: cited from earlier work
SCoV-2 [7] = system: SCoV-2; design: method as in PMID 33531496, PMID 32895623, PMID 33473130, PMID 34341772, PMID 32845033; details: cited from earlier work
SCoV-2 [8] = system: SCoV-2; design: method as in PMID 33531496, PMID 32895623, PMID 33473130, PMID 34341772, PMID 32845033; details: oral delivery; cited from earlier work
[9] = IC50 (PLpro inhibition, HTS hits), HTS hit dose response, 10 point 1:2 dilution from 40 μM, 50 nM PLpro, 50 μM RLRGG-AMC
[10] = IC50 (PLpro inhibition, compound 5 and derivatives), hit exploration / SAR, compounds purchased from ChemDiv

CCOC(=O)c1sc(=S)n(-c2cc(OC)ccc2OC)c1N [Compound 7]
IC50 (PLpro from SCoV-2 [1]; [9]): 3.87 µM

Cc1nnc(Sc2nc(Sc3nnc(C)s3)nc(Sc3nnc(C)s3)n2)s1 [Compound 4]
IC50 (PLpro from SCoV-2 [1]; [9]): 1.42 µM

CCSc1nc2sc3c(c2c(=O)n1CC)CCc1ccccc1-3 [Compound 5B]
IC50 (PLpro from SCoV-2 [1]; hit exploration / SAR, compounds purchased from ChemDiv, read-out: IC50 (PLpro inhibition, compound 5 and derivatives)): 5 µM and 4.99 µM
antiviral activity in Vero E6 cells by plaque assay (SARS-CoV-2 USA-WA1/2020): did not have any antiviral activity; also recorded: do not exhibit antiviral activity

CN(C)C(S)=Nc1nc2ccccc2s1 [Compound 8]
IC50 (PLpro from SCoV-2 [1]; [9]): 4.76 µM

Cc1nn(-c2ccccc2)c(OC(=O)C(C)C)c1Sc1ccccc1 [Compound 1]
IC50 (PLpro from SCoV-2 [1]; [9]): 0.815 µM

Cc1ccc(-n2c(N)c(C(=O)N3CCCCC3)sc2=S)cc1 [Compound 10]
IC50 (PLpro from SCoV-2 [1]; [9]): 8.33 µM

CCn1c(N)c(C(=O)Nc2ccccc2OC)sc1=S [Compound 6]
IC50 (PLpro from SCoV-2 [1]; [9]): 2.73 µM

CNC(=O)c1sc(=S)n(-c2cc(Cl)ccc2OC)c1N [Compound 2]
IC50 (PLpro from SCoV-2 [1]; [9]): 0.985 µM

C=CCSc1nc2sc3c(c2c(=O)n1CC)CCc1ccccc1-3 [Compound 5E]
IC50 (PLpro from SCoV-2 [1]; [10]): 0.9 µM and 0.853 µM and 0.85 µM
IC50 relative to compound 5 (times lower / fold higher potency) (PLpro from SCoV-2 [1]; compared with compound 5): approximately 5 fold
antiviral activity in Vero E6 cells by plaque assay (SARS-CoV-2 USA-WA1/2020): did not have any antiviral activity; also recorded: do not exhibit antiviral activity
Kd (PLpro [2]): 8.3 µM

CCCSc1nc2sc3c(c2c(=O)n1CC)CCc1ccccc1-3 [Compound 5]
IC50 (PLpro from SCoV-2 [1]; [9]): 1.59 µM
IC50 (PLpro from SCoV-2 [1]; [10]): 5.1 µM and 5.19 µM and 5 µM
IC50 (PLpro [3]; 3 hour pre-incubation with PLpro, read-out: IC50 of PLpro inhibition after 3 hour pre-incubation): 0.9 µM
decrease in IC50 after pre-incubation (PLpro [3]; 3 hours pre-incubation vs none): 10 fold
IC50 (PLpro [3]; no pre-incubation, read-out: IC50 of PLpro inhibition, no pre-incubation): 9 µM
reduction of NLuc levels of infected cells (SARS-CoV-2-NLuc; 10 μM): 3 fold
reduction of NLuc levels of infected cells (SARS-CoV-2-NLuc; 20 μM): 7 fold
reduction in infectious virus levels (plaque forming assay) (SARS-CoV-2 USA-WA1/2020; 10 μM): 3 fold
reduction in infectious virus levels (plaque forming assay) (SARS-CoV-2 USA-WA1/2020; 20 μM): 22 fold
viability at 72 h, 1 µM ([4]; 1 μM): > 85%
viability at 72 h, 10 µM ([4]; 10 μM): > 85%
viability at 72 h, 25 µM ([4]; 25 μM): > 85%
toxicity (Vero CCL-81 cells): significant toxicity
cysteine reactivity: blocking of iodoacetamide-rhodamine labelling of PLpro (SCoV2 PLpro; IA-rhodamine probe): prevents PLpro from reacting with iodo-acetamide; also recorded: able to prevent PLpro from reacting with iodo-acetamide
lysine reactivity: blocking of NHS-rhodamine labelling of PLpro (SCoV2 PLpro; NHS-rhodamine probe): unable to prevent PLpro from reacting with NHS-rhodamine
recovery of PLpro activity after dilution (PLpro [5]; 200 μM cysteine): can regenerate active PLpro; also recorded: recovered the activity of PLpro
recovery of PLpro activity after dilution (PLpro [5]; 5 mM reduced glutathione (GSH)): cannot; also recorded: did not
recovery of PLpro activity after dilution (PLpro [5]; diluted 25-fold with 5 mM BMe, 5 minutes): 90%
recovery of PLpro activity after dilution (PLpro [5]; dilution in PBS): still inhibits PLpro after dilution with PBS
recovery of PLpro activity after dilution (PLpro [5]; dilution in PBS, listed as compound 5): no effect on the activity of PLpro
Kd (PLpro [2]; SPR, His-tagged PLpro on Ni-NTA chip, read-out: binding constant KD): 21 µM

CCC(CC)COC(=O)[C@H](C)N[P@](=O)(OC[C@H]1O[C@@](C#N)(c2ccc3c(N)ncnn23)[C@H](O)[C@@H]1O)Oc1ccccc1 [Remdesivir, reference compound]
antiviral activity, positive control in plaque forming assay (SARS-CoV-2 USA-WA1/2020; 100 μM): potently inhibited the virus

COC(=O)c1ccc([C@@H]2Nc3c(Cl)cccc3[C@@H]3C=CC[C@@H]32)cc1 [Compound 9]
IC50 (PLpro from SCoV-2 [1]; [9]): 7.94 µM

Cc1ccc(N)cc1C(=O)N[C@H](C)c1cccc2ccccc12 [GRL0617]
IC50 (SCoV PLpro) (SCoV PLpro): low micromolar range
IC50 (PLpro from SCoV-2) (PLpro from SCoV-2 [6]): micromolar range
IC50 (viral replication in cells) (SCoV-2 [7]): micromolar range
antiviral activity against SCoV-2 in mice (SCoV-2 [8]): moderate antiviral activity
